In patent US10780090B2, “Heteroaryl compounds useful as inhibitors of SUMO activating enzyme” (Millennium Pharmaceuticals, Inc., priority 2014, dated 2020):

Target: recombinant human SAE enzyme (Homo sapiens (Human), UniProt Q9UBT2)
Test: SAE HTRF enzyme assay
Type: biochemical
Conditions: for inhibition at 0.111 µM: read-out: Percent Inhibition
How it was run: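 This HTRF format monitors Sumo-Flag–Ubc9-GST thioester formation catalysed by 0.11 nM human SAE with 0.5 μM ATP over 105 min at 24° C. Inhibition is expressed at a single concentration or as IC50.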

[1] = SAE inhibition at compound concentration 0.111 μM
[2] = SAE inhibition, class symbols, legend in nM

Chain of recombinant human SAE enzyme (Q9UBT2 whole entry): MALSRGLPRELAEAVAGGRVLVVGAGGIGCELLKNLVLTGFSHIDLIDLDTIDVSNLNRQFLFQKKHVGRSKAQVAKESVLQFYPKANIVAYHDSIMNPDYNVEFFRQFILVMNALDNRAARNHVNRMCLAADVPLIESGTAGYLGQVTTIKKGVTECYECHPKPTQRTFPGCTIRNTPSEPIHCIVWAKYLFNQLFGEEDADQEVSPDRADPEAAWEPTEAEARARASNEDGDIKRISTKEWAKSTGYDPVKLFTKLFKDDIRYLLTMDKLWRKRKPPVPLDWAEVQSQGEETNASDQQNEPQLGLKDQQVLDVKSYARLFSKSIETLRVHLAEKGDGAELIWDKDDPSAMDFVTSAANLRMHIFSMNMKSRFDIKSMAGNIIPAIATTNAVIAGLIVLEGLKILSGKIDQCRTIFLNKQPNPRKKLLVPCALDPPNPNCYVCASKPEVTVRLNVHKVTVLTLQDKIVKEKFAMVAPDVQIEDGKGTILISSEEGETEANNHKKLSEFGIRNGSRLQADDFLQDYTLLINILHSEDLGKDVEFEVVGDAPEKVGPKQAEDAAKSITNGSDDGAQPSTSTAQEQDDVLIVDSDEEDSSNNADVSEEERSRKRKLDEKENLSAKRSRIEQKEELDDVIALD
Chain of recombinant human SAE enzyme (Q9UBE0 whole entry partner): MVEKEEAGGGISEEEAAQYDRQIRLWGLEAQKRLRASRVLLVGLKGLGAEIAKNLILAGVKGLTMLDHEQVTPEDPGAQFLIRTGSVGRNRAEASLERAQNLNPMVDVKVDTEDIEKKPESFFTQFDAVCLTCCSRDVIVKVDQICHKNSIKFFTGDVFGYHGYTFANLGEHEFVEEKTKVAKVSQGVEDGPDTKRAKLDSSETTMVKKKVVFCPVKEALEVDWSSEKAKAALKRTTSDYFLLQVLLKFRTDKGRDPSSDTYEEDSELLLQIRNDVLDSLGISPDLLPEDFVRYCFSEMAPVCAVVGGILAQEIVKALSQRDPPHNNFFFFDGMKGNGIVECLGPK

Compound	Percent Inhibition (Concentration 0.111 μM)	IC50 (class symbols A/B/C)	Percent Inhibition [1]	IC50 [2]	inhibition at 0.111 µM (Concentration 0.111 μM)
NS(=O)(=O)OCC1CC(Nc2ncncc2C(=O)c2cc(C3(c4cccc(Cl)c4)CCCCO3)cs2)CC1O (mixture of isomers) [I-154, [(1R,2S,4R)-4-{[5-({4-[(2R)-2-(3-chlorophenyl)tetrahydro-2H-pyran-2-yl]-2-thienyl}carbonyl)pyrimidin-4-yl]amino}-2-hydroxycyclopentyl]methyl sulfamate and [(1R,2S,4R)-4-{[5-({4-[(2S)-2-(3-chlorophenyl)tetrahydro-2H-pyran-2-yl]-2-thienyl}carbonyl)pyrimidin-4-yl]amino}-2-hydroxycyclopentyl]methyl sulfamate]	95	< 10 nM	–	–	–
NS(=O)(=O)OC[C@H]1C[C@@H](Nc2ncncc2C(=O)c2cc([C@@H]3NCCCc4ccccc43)c(Cl)s2)C[C@@H]1O (mixture of isomers) [I-319, [(1R,2S,4R)-4-{[5-({5-chloro-4-[(1R)-2,3,4,5-tetrahydro-1H-2-benzazepin-1-yl]-2-thienyl}carbonyl)pyrimidin-4-yl]amino}-2-hydroxycyclopentyl]methyl sulfamate and [(1R,2S,4R)-4-{[5-({5-chloro-4-[(1S)-2,3,4,5-tetrahydro-1H-2-benzazepin-1-yl]-2-thienyl}carbonyl)pyrimidin-4-yl]amino}-2-hydroxycyclopentyl]methyl sulfamate]	–	–	94%	< 10 nM	–
CN(C)[C@H](c1cccc(Cl)c1)c1csc(C(=O)c2cncnc2N[C@@H]2C[C@H](COS(N)(=O)=O)[C@@H](O)C2)c1 (single isomer, unassigned) [I-153a, [(1R,2S,4R)-4-{[5-({4-[(R)-(3-chlorophenyl)(dimethylamino)methyl]-2-thienyl}carbonyl)pyrimidin-4-yl]amino}-2-hydroxycyclopentyl]methyl sulfamate or [(1R,2S,4R)-4-{[5-({4-[(S)-(3-chlorophenyl)(dimethylamino)methyl]-2-thienyl}carbonyl)pyrimidin-4-yl]amino}-2-hydroxycyclopentyl]methyl sulfamate]	30	100 to 1000 nM	–	–	–
COCc1sc(C(=O)c2cncnc2N[C@@H]2C[C@H](COS(N)(=O)=O)[C@@H](O)C2)cc1Cc1cccc(Cl)c1 [I-44, {(1R,2S,4R)-4-[(5-{[4-(3-chlorobenzyl)-5-(methoxymethyl)-2-thienyl]carbonyl}pyrimidin-4-yl)amino]-2-hydroxycyclopentyl}methyl sulfamate]	–	< 10 nM	–	–	100%
[(1R,2S,4R)-2-hydroxy-4-{[5-({4-[(1R)-2-methyl-2,3-dihydro-1H-isoindol-1-yl]-2-thienyl}carbonyl)pyrimidin-4-yl]amino}cyclopentyl]methyl sulfamate and [(1R,2S,4R)-2-hydroxy-4-{[5-({4-[(1S)-2-methyl-2,3-dihydro-1H-isoindol-1-yl]-2-thienyl}carbonyl)pyrimidin-4-yl]amino}cyclopentyl]methyl sulfamate [I-308]	–	–	98%	< 10 nM	–
Cc1sc(C(=O)c2cncnc2N[C@@H]2C[C@H](COS(N)(=O)=O)[C@@H](O)C2)cc1[C@H]1NCCc2ccccc21 (single isomer, unassigned) [I-292a, [(1R,2S,4R)-2-hydroxy-4-{[5-({5-methyl-4-[(1S)-1,2,3,4-tetrahydroisoquinolin-1-yl]-2-thienyl}carbonyl)pyrimidin-4-yl]amino}cyclopentyl]methyl sulfamate or [(1R,2S,4R)-2-hydroxy-4-{[5-({5-methyl-4-[(1R)-1,2,3,4-tetrahydroisoquinolin-1-yl]-2-thienyl}carbonyl)pyrimidin-4-yl]amino}cyclopentyl]methyl sulfamate]	–	–	99%	< 10 nM	–
NS(=O)(=O)OC[C@H]1C[C@@H](Nc2ncncc2C(=O)c2cc([C@@H]3OCCc4ccc(F)cc43)cs2)C[C@@H]1O (single isomer, unassigned) [I-267b, [(1R,2S,4R)-4-{[5-({4-[(1R)-7-fluoro-3,4-dihydro-1H-isochromen-1-yl]-2-thienyl}carbonyl)pyrimidin-4-yl]amino}-2-hydroxycyclopentyl]methyl sulfamate or [(1R,2S,4R)-4-{[5-({4-[(1S)-7-fluoro-3,4-dihydro-1H-isochromen-1-yl]-2-thienyl}carbonyl)pyrimidin-4-yl]amino}-2-hydroxycyclopentyl]methyl sulfamate]	100	< 10 nM	–	–	–
C[C@](O)(c1csc(C(=O)c2cncnc2N[C@@H]2C[C@H](COS(N)(=O)=O)[C@@H](O)[C@H]2O)c1)c1cccc(Br)n1 (single isomer, unassigned) [I-1b, [(1R,2R,3S,4R)-4-{[5-({4-[(1S)-1-(6-bromopyridin-2-yl)-1-hydroxyethyl]-2-thienyl}carbonyl)pyrimidin-4-yl]amino}-2,3-dihydroxycyclopentyl]methyl sulfamate or [(1R,2R,3S,4R)-4-{[5-({4-[(1R)-1-(6-bromopyridin-2-yl)-1-hydroxyethyl]-2-thienyl}carbonyl)pyrimidin-4-yl]amino}-2,3-dihydroxycyclopentyl]methyl sulfamate]	100	< 10 nM	–	–	–
NS(=O)(=O)OC[C@H]1C[C@@H](Nc2nc(Cl)ncc2C(=O)c2ccc(-c3ccccc3)o2)[C@H](O)[C@@H]1O [I-236, [(1R,2R,3S,4R)-4-{[2-chloro-5-(5-phenyl-2-furoyl)pyrimidin-4-yl]amino}-2,3-dihydroxycyclopentyl]methyl sulfamate]	–	100 to 1000 nM	–	–	19%
NS(=O)(=O)OC[C@H]1C[C@@H](Nc2ncncc2C(=O)c2cc(Cc3cccc(Br)c3)c(Cl)s2)[C@H](O)[C@@H]1O [I-76, {(1R,2R,3S,4R)-4-[(5-{[4-(3-bromobenzyl)-5-chloro-2-thienyl]carbonyl}pyrimidin-4-yl)amino]-2,3-dihydroxycyclopentyl}methyl sulfamate]	–	< 10 nM	–	–	99%
NS(=O)(=O)OC[C@H]1C[C@@H](Nc2ncncc2C(=O)c2cc([C@@H]3NCCc4ccc(Br)cc43)c(Cl)s2)[C@H](O)[C@@H]1O (single isomer, unassigned) [I-259b, [(1R,2R,3S,4R)-4-{[5-({4-[(1R)-7-bromo-1,2,3,4-tetrahydroisoquinolin-1-yl]-5-chloro-2-thienyl}carbonyl)pyrimidin-4-yl]amino}-2,3-dihydroxycyclopentyl]methyl sulfamate or [(1R,2R,3S,4R)-4-{[5-({4-[(1S)-7-bromo-1,2,3,4-tetrahydroisoquinolin-1-yl]-5-chloro-2-thienyl}carbonyl)pyrimidin-4-yl]amino}-2,3-dihydroxycyclopentyl]methyl sulfamate]	97	< 10 nM	–	–	–
Cc1cccc(Cc2csc(C(=O)c3cncnc3N[C@@H]3C[C@H](COS(N)(=O)=O)[C@@H](O)C3)c2)c1 [I-60, {(1R,2S,4R)-2-hydroxy-4-[(5-{[4-(3-methylbenzyl)-2-thienyl]carbonyl}pyrimidin-4-yl)amino]cyclopentyl}methyl sulfamate]	–	–	–	–	99%
NS(=O)(=O)OC[C@H]1C[C@@H](Nc2ncncc2C(=O)c2cc([C@@H]3NCCc4ccc(Br)cc43)c(Cl)s2)[C@H](O)[C@@H]1O (mixture of isomers) [I-259, [(1R,2R,3S,4R)-4-{[5-({4-[(1R)-7-bromo-1,2,3,4-tetrahydroisoquinolin-1-yl]-5-chloro-2-thienyl}carbonyl)pyrimidin-4-yl]amino}-2,3-dihydroxycyclopentyl]methyl sulfamate and [(1R,2R,3S,4R)-4-{[5-({4-[(1S)-7-bromo-1,2,3,4-tetrahydroisoquinolin-1-yl]-5-chloro-2-thienyl}carbonyl)pyrimidin-4-yl]amino}-2,3-dihydroxycyclopentyl]methyl sulfamate]	99	< 10 nM	–	–	–
CN1Cc2cc(Cl)ccc2[C@@H]1c1csc(C(=O)c2cncnc2N[C@@H]2C[C@H](COS(N)(=O)=O)[C@@H](O)C2)c1 (mixture of isomers) [I-322, [(1R,2S,4R)-4-{[5-({4-[(1R)-5-chloro-2-methyl-2,3-dihydro-1H-isoindol-1-yl]-2-thienyl}carbonyl)pyrimidin-4-yl]amino}-2-hydroxycyclopentyl]methyl sulfamate and [(1R,2S,4R)-4-{[5-({4-[(1S)-5-chloro-2-methyl-2,3-dihydro-1H-isoindol-1-yl]-2-thienyl}carbonyl)pyrimidin-4-yl]amino}-2-hydroxycyclopentyl]methyl sulfamate]	–	–	92%	10 to 100 nM	–
Cc1oc(C(=O)c2cncnc2N[C@@H]2C[C@H](COS(N)(=O)=O)[C@@H](O)C2)cc1Cc1cccc(Br)c1 [I-34, [(1R,2S,4R)-4-({5-[4-(3-bromobenzyl)-5-methyl-2-furoyl]pyrimidin-4-yl}amino)-2-hydroxycyclopentyl]methyl sulfamate]	–	< 10 nM	–	–	99%
Cc1nc2n(c1C)CCO[C@@H]2c1cc(C(=O)c2cncnc2N[C@@H]2C[C@H](COS(N)(=O)=O)[C@@H](O)C2)sc1C (mixture of isomers) [I-356, ((1R,2S,4R)-4-{(5-(4-((R)-2,3-dimethyl-6,8-dihydro-5H-imidazo[2,1-c][1,4c]oxazin-8-yl)-5-methylthiophene-2-carbonyl)pyrimidin-4-yl)amino)-2-hydroxycyclopentyl)methyl sulfamate and ((1R,2S,4R)-4-((5-4-((S)-2,3-dimethyl-6,8-dihydro-5H-imidazo[2,1-c][1,4]oxazin-8-yl)-5-methylthiophene-2-carbonyl)pyrimidin-4-yl)amino)-2-hydroxycyclopentyl)methyl sulfamate]	–	–	97%	< 10 nM	–
